Assay results: patent US20240139211A1, “METHODS AND COMPOSITIONS FOR TREATING AMYOTROPHIC LATERAL SCLEROSIS” (Amylyx Pharmaceuticals, Inc., priority 2022, published 2024)
Where “and” joins values, the source holds several entries; their conditions need not be identical. Equal values may be shown once.

Assays:
OATP1B1 = OATP1B1 (Homo sapiens, UniProt Q9Y6L6); test: OATP1B1 inhibition, atorvastatin uptake in transfected HEK cells
OATP1B3 = OATP1B3 (Homo sapiens, UniProt Q9NPD5); test: OATP1B3 inhibition, atorvastatin uptake in transfected HEK cells; conditions: for Influx Rate of […] Atorvastatin (5 min): OATP1B3-HEK Cells
MATE2K = MATE2K (Homo sapiens, UniProt Q86VL8); test: MATE2K inhibition, metformin uptake in transfected HEK cells; conditions: no inhibitor
MATE1 = molecular target: T1, MATE1 (Homo sapiens, UniProt Q96FL8); test: MATE1 inhibition, metformin uptake in transfected HEK cells; conditions: no inhibitor
T1 sequence (Q96FL8 1-570): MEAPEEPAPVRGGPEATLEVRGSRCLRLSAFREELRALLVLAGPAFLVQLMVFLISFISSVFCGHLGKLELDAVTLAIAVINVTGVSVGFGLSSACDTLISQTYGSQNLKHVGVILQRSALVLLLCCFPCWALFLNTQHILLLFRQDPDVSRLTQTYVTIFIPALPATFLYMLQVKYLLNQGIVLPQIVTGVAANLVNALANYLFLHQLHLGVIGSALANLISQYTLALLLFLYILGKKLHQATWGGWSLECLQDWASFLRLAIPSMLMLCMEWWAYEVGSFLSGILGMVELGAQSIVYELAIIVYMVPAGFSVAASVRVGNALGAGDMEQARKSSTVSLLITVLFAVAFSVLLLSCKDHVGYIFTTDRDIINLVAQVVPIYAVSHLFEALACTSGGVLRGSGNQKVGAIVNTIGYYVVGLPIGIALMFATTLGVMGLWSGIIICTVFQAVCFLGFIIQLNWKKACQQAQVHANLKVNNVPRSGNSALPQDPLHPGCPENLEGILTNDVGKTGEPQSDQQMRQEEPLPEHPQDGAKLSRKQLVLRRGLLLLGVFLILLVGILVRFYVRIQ

OCT2 [1] = molecular target: T2, OCT2 (Homo sapiens, UniProt O15244); test: OCT2 inhibition, MPP+ uptake in transfected HEK cells; conditions: no inhibitor
T2 sequence (O15244 1-555): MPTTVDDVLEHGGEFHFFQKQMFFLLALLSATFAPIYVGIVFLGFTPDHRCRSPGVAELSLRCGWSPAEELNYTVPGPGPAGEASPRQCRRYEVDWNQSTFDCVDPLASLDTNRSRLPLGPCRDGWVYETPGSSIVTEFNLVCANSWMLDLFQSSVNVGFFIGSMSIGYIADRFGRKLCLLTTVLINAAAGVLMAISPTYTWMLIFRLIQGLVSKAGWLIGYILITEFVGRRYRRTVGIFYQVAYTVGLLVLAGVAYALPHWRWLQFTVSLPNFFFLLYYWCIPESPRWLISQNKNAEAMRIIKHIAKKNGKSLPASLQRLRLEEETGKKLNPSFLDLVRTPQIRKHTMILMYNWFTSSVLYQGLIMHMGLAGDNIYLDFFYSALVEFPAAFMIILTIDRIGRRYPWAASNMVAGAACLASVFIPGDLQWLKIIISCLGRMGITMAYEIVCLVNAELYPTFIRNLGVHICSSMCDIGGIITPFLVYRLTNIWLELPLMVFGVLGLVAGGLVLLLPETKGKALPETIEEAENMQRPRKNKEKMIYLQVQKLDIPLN

OCT2 [2] = molecular target: T2, OCT2; test: Substrate of OCT2, uptake in HEK293 cells; conditions: probe substrate 1 μM
Source text: (§1) Vector-transfected HEK cells were used as a control.

OAT3 = molecular target: T3, OAT3 (Homo sapiens, UniProt Q8TCC7); test: Substrate of OAT3, uptake in HEK293 cells; conditions: probe substrate 1 μM
T3 sequence (Q8TCC7 1-542): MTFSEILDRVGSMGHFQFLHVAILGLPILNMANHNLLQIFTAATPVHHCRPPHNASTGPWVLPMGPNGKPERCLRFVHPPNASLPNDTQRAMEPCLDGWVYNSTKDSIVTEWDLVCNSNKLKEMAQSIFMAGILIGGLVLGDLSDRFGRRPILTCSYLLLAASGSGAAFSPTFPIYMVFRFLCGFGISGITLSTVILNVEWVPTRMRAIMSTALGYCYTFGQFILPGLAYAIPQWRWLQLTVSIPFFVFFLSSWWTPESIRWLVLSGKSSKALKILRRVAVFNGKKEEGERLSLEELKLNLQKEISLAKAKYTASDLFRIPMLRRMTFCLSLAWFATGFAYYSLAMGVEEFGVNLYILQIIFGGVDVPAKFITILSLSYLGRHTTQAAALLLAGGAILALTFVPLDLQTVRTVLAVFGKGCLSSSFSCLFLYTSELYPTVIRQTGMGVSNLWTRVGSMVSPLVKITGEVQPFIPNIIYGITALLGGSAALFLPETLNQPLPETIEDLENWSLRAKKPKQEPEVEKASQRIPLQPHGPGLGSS
Source text: as §1

CYP2B6 mRNA = CYP2B6 mRNA induction in human hepatocytes (qPCR); conditions: phenobarbital 1,000 μM, flumazenil 10 μM
Procedure: Plateable and inducible cryopreserved human hepatocytes were thawed and isolated in human hepatocyte thawing medium.
All experiments were performed in triplicate.
After induction treatment, CYP mRNA expression was measured by qPCR. Total RNA was isolated from the treated cells using the RNeasy® mini kit (Qiagen, Valencia, CA, USA) and treated with RNase-free DNase (Qiagen) following the manufacturer's protocols. The concentration of RNA was determined using a Qubit® Fluorometer with a Qubit RNA HS assay kit (Invitrogen). cDNA was synthesized from up to […] of the total RNA harvested from the cells using a QuantiTect® RT kit (Qiagen). Analysis of CYP gene expression by qPCR (Table 3) was performed using the LightCycler® 480 II System (Roche Diagnostics Corporation, Indianapolis, IN, USA).
Relative mRNA was expressed as the fold-increase calculated from the normalized mRNA level (2^−ΔΔCt) relative to vehicle control. The percentage of mRNA fold-increase relative to positive control was calculated using the following equation:
% Induction relative to positive control=100×(mRNATA−mRNAvehicle)/(mRNApositive control−mRNAvehicle)

human hepatocytes = test: Cell viability after CYP induction treatment (MTS); conditions: controls at induction concentrations
Procedure: Plateable and inducible cryopreserved human hepatocytes were thawed and isolated in human hepatocyte thawing medium. […] After attachment (4 hours), the medium was changed to fresh hepatocyte culture medium for overnight cell recovery. […] A positive control (100 μM chlorpromazine) was treated in parallel.
After the CYP induction treatment, the cells were used for cell viability assay. The viability of cells (expressed as the percentage of MTS absorbance relative to vehicle control) was measured as described herein.

[3] = Vector Control Cells, replicates

Chain of MATE2K (Q86VL8 1-566 isoform Q86VL8-3): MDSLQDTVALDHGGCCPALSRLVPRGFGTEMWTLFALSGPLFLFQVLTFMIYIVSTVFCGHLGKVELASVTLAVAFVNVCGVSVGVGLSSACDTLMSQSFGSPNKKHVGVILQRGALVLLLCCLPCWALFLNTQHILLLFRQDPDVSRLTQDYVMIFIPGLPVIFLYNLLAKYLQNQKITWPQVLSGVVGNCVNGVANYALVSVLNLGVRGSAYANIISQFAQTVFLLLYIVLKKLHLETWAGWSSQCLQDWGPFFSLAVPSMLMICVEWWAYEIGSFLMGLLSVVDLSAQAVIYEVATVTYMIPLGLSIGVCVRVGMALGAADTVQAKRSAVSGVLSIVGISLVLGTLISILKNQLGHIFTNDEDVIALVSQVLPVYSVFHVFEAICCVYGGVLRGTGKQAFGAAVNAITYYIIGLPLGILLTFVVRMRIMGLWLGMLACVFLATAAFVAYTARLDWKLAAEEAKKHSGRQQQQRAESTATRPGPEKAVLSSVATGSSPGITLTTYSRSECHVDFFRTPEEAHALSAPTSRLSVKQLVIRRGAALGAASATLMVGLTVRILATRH
Chain of OATP1B3 (Q9NPD5 whole entry): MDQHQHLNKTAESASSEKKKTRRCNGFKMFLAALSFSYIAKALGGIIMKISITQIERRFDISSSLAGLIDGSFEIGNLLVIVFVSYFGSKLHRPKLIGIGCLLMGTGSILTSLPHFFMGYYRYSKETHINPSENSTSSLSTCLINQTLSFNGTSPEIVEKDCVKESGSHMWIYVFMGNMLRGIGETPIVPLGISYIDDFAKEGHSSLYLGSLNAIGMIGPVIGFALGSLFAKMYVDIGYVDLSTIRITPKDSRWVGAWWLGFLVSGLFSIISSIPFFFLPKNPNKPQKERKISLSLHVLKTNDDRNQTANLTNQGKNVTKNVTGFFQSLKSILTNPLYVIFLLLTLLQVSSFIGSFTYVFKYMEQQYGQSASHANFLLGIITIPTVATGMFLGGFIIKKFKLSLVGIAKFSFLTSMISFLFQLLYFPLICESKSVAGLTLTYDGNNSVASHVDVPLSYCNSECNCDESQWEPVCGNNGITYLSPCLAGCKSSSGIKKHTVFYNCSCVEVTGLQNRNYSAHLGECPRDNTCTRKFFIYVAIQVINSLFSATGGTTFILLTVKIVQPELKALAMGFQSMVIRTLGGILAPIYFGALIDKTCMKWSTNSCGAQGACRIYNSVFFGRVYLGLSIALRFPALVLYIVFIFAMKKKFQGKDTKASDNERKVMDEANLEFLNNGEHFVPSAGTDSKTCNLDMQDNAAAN
Chain of OATP1B1 (Q9Y6L6 whole entry): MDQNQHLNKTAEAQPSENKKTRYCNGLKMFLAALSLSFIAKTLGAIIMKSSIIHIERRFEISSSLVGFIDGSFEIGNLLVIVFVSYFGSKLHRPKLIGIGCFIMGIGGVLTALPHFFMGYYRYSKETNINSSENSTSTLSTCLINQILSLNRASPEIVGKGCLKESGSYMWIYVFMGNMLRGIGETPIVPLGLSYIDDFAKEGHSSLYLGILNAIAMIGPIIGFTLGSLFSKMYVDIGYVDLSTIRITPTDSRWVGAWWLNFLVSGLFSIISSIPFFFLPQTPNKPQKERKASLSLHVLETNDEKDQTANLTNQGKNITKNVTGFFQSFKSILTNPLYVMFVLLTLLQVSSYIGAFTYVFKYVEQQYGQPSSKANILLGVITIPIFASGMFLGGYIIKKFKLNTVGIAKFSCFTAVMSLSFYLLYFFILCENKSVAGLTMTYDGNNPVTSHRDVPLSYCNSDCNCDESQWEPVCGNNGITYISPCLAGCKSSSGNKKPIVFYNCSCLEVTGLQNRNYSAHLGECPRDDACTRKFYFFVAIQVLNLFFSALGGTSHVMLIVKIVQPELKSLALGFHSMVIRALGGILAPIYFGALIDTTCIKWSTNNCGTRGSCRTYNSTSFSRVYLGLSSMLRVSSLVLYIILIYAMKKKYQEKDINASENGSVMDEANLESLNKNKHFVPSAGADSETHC

`CO[C@H]1/C=C/O[C@@]2(C)Oc3c(C)c([O-])c4c(O)c(cc(O)c4c3C2=O)NC(=O)/C(C)=C\C=C\[C@H](C)[C@H](O)[C@@H](C)[C@@H](O)[C@@H](C)[C@H](OC(C)=O)[C@@H]1C.[Na+]` [RSV, rifamycin SV] was tested, and the “Influx Rate of […] Atorvastatin (5 min)” value (OATP1B1; 10 μM RSV, OATP1B1-HEK Cells, Average) was 0.702 pmol/mg protein/minute, the “Influx Rate of […] Atorvastatin (5 min)” value (OATP1B1; 10 μM RSV, OATP1B1-HEK Cells, replicates) was 0.724 pmol/mg protein/minute and 0.681 pmol/mg protein/minute and the “Influx Rate of […] Atorvastatin (5 min)” value (OATP1B1; 10 μM RSV, Vector Control Cells, Average) was 0.518 pmol/mg protein/minute. The “Influx Rate of […] Atorvastatin (5 min)” value (OATP1B1; 10 μM RSV, Vector Control Cells, replicates) was 0.496 pmol/mg protein/minute and 0.541 pmol/mg protein/minute, the “Net Influx Rate of […] Atorvastatin” value (OATP1B1; OATP1B1, 10 μM RSV) was 0.184 pmol/mg protein/minute and the “Percentage Inhibition” value (OATP1B1; OATP1B1, 10 μM RSV) was 96.7%. The “% inhibition of atorvastatin uptake” value (OATP1B1; known inhibitor) was 96.7%, the “Influx Rate of […] Atorvastatin (5 min)” value (OATP1B3; 10 μM RSV, Average) was 0.573 pmol/mg protein/minute and the “Influx Rate of […] Atorvastatin (5 min)” value (OATP1B3; 10 μM RSV, replicates) was 0.576 pmol/mg protein/minute and 0.571 pmol/mg protein/minute. The “Net Influx Rate of […] Atorvastatin” value (OATP1B3; OATP1B3, 10 μM RSV) was 0.0551 pmol/mg protein/minute, the “Percentage Inhibition” value (OATP1B3; OATP1B3, 10 μM RSV) was 98.1% and the “% inhibition of atorvastatin uptake” value (OATP1B3; known inhibitor) was 98.1%.
With `CN(C)C(=N)N=C(N)N` [metformin] the “Net Influx Rate of 50 μM Metformin” value (MATE2K; MATE2K) was 36.1 pmol/mg protein/minute, the “Influx rate ratio (MATE2K over vector control)” value (MATE2K) was 2.70 and the “Influx Rate of 50 μM Metformin (10 min)” value (MATE2K; MATE2K HEK Cells, Average) was 57.4 pmol/mg protein/minute. For the same molecule, the “Influx Rate of 50 μM Metformin (10 min)” value (MATE2K; MATE2K HEK Cells, replicates) was 54.5 pmol/mg protein/minute and 60.2 pmol/mg protein/minute, the “Influx Rate Ratio of metformin” value (MATE2K; MATE2K over vector control) was 2.70 and the “Influx Rate of 50 μM Metformin (10 min)” value (MATE2K; Vector Control Cells, Average) was 21.3 pmol/mg protein/minute. The “Influx Rate of 50 μM Metformin (10 min)” value (MATE2K; [3]) was 19.6 pmol/mg protein/minute and 22.8 pmol/mg protein/minute, the “Net Influx Rate of 50 μM Metformin” value (MATE1; MATE1) was 572 pmol/mg protein/minute and the “Influx rate ratio (MATE1 over vector control)” value (MATE1) was 43.4. The “Influx Rate of 50 μM Metformin (10 min)” value (MATE1; MATE1-HEK Cells, Average) was 586 pmol/mg protein/minute, the “Influx Rate of 50 μM Metformin (10 min)” value (MATE1; MATE1-HEK Cells, replicates) was 515 pmol/mg protein/minute and 656 pmol/mg protein/minute and the “Influx Rate Ratio of metformin” value (MATE1; MATE1 over vector control) was 43.4. For the same molecule, the “Influx Rate of 50 μM Metformin (10 min)” value (MATE1; Vector Control Cells, Average) was 13.5 pmol/mg protein/minute and the “Influx Rate of 50 μM Metformin (10 min)” value (MATE1; [3]) was 15.6 pmol/mg protein/minute and 11.3 pmol/mg protein/minute.
For `C[n+]1ccc(-c2ccccc2)cc1` [MPP+, 1-methyl-4-phenylpyridinium], the “Net Influx Rate of 5 μM MPP+” value (OCT2 [1]; OCT2) was 847 pmol/mg protein/minute, the “Influx rate ratio (OCT2 over vector control)” value (OCT2 [1]) was 48.9 and the “Influx Rate of 5 μM MPP+ (2 min)” value (OCT2 [1]; OCT2-HEK Cells, Average) was 864 pmol/mg protein/minute. For the same molecule, the “Influx Rate of 5 μM MPP+ (2 min)” value (OCT2 [1]; OCT2-HEK Cells, replicates) was 896 pmol/mg protein/minute and 833 pmol/mg protein/minute, the “Influx Rate Ratio of MPP+” value (OCT2 [1]; OCT2 over vector control) was 48.9 and the “Influx Rate of 5 μM MPP+ (2 min)” value (OCT2 [1]; Vector Control Cells, Average) was 17.7 pmol/mg protein/minute. For the same molecule, the “Influx Rate of 5 μM MPP+ (2 min)” value (OCT2 [1]; [3]) was 19.0 pmol/mg protein/minute and 16.3 pmol/mg protein/minute.
In the case of `CN(C)C(N)=NC(=N)N` [14C-metformin], the “Fold uptake over the vector control by OCT2” value (OCT2 [2]) is reported as 43.7 fold.
For `C[C@]12CC[C@@H]3c4ccc(OS(=O)(=O)O)cc4CC[C@H]3[C@@H]1CCC2=O` [3H-estrone-3-sulfate], the “Fold uptake over the vector control by OAT3” value (OAT3) was 25.9 fold.
For `CCC1(c2ccccc2)C(=O)NC(=O)NC1=O` [Phenobarbital, phenobarbital], the “% induction relative to positive control” value (CYP2B6 mRNA; donor 1) was 100%, the “CYP2B6 mRNA fold-increase, mean” value (CYP2B6 mRNA; donor 1) was 21.8 fold and the “% induction relative to positive control” value (CYP2B6 mRNA; donor 2) was 100%. For the same molecule, the “CYP2B6 mRNA fold-increase, mean” value (CYP2B6 mRNA; donor 2) was 39.6 fold, the “% induction relative to positive control” value (CYP2B6 mRNA; donor 3) was 100% and the “CYP2B6 mRNA fold-increase, mean” value (CYP2B6 mRNA; donor 3) was 7.36 fold. For the same molecule, the “% MTS absorbance relative to vehicle control” value (human hepatocytes; donor 1) was 97.7%, the “Formazan absorbance, mean (n=6)” value (human hepatocytes; donor 1) was 0.417 and the “% MTS absorbance relative to vehicle control” value (human hepatocytes; donor 2) was 98.8%. For the same molecule, the “Formazan absorbance, mean (n=6)” value (human hepatocytes; donor 2) was 0.504, the “% MTS absorbance relative to vehicle control” value (human hepatocytes; donor 3) was 108% and the “Formazan absorbance, mean (n=6)” value (human hepatocytes; donor 3) was 0.320.
